PubChem BioAssay AID248 (DTP/NCI, 2004)
Values joined by “and” are separate entries in the source; they are usually repeats but may differ in a detail not shown here. Equal entries are not always repeated. Inconclusive results and toxic doses are left out. No stated cut-off is given here; in the data, active means T/C of 150% or more; inactive means T/C below 125%.

Test system: L1210 leukemia ip in BDF1 mice, survival T/C
Assay: NCI In Vivo Anticancer Drug Screen. Data for tumor model L1210 Leukemia (intraperitoneal) in B6D2F1 (BDF1) mice
Details: endpoint: mean survival time, higher = longer survival
In short: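 Tumor was transplanted into mice, which were then dosed with test compound or vehicle alone. Survival was recorded for each group, and the treated figure was expressed relative to the control figure.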

[1] = dose: 100.0 mg/kg/injection, schedule: Q04DX003 (ip), vehicle: Klucel (hydroxypropylcellulose) (HPC)
[2] = dose: 200.0 mg/kg/injection, schedule: Q04DX003 (ip), vehicle: Klucel (hydroxypropylcellulose) (HPC)
[3] = dose: 400.0 mg/kg/injection, schedule: Q04DX003 (ip), vehicle: Klucel (hydroxypropylcellulose) (HPC)
[4] = dose: 100.0 mg/kg/injection, schedule: Q04DX002 (ip), vehicle: Klucel (hydroxypropylcellulose) (HPC)
[5] = dose: 200.0 mg/kg/injection, schedule: Q04DX002 (ip), vehicle: Klucel (hydroxypropylcellulose) (HPC)
[6] = dose: 100.0 mg/kg/injection, schedule: Q04DX003 (ip), vehicle: saline with Tween-80
[7] = dose: 200.0 mg/kg/injection, schedule: Q04DX003 (ip), vehicle: saline with Tween-80
[8] = dose: 100.0 mg/kg/injection, schedule: Q04DX003 (ip), vehicle: saline
[9] = dose: 200.0 mg/kg/injection, schedule: Q04DX003 (ip), vehicle: saline
[10] = dose: 400.0 mg/kg/injection, schedule: Q04DX003 (ip), vehicle: saline
[11] = dose: 400.0 mg/kg/injection, schedule: Q04DX003 (ip), vehicle: saline with Tween-80
[12] = dose: 100.0 mg/kg/injection, schedule: Q01DX001 (ip), vehicle: saline with Tween-80
[13] = dose: 200.0 mg/kg/injection, schedule: Q01DX001 (ip), vehicle: saline with Tween-80
[14] = dose: 400.0 mg/kg/injection, schedule: Q01DX001 (ip), vehicle: saline with Tween-80
[15] = dose: 400.0 mg/kg/injection, schedule: Q04DX002 (ip), vehicle: Klucel (hydroxypropylcellulose) (HPC)
[16] = dose: 200.0 mg/kg/injection, schedule: Q01DX009 (ip), vehicle: Klucel (hydroxypropylcellulose) (HPC)
[17] = dose: 400.0 mg/kg/injection, schedule: Q01DX009 (ip), vehicle: Klucel (hydroxypropylcellulose) (HPC)
[18] = dose: 100.0 mg/kg/injection, schedule: Q01DX001 (ip), vehicle: carboxymethylcellulose (CMC)
[19] = dose: 200.0 mg/kg/injection, schedule: Q01DX001 (ip), vehicle: carboxymethylcellulose (CMC)
[20] = dose: 400.0 mg/kg/injection, schedule: Q01DX001 (ip), vehicle: carboxymethylcellulose (CMC)
[21] = dose: 100.0 mg/kg/injection, schedule: Q01DX009 (ip), vehicle: saline with Tween-80
[22] = dose: 200.0 mg/kg/injection, schedule: Q01DX009 (ip), vehicle: saline with Tween-80
[23] = dose: 400.0 mg/kg/injection, schedule: Q01DX009 (ip), vehicle: saline with Tween-80
[24] = dose: 100.0 mg/kg/injection, schedule: Q04DX002 (ip), vehicle: saline with Tween-80

Measured: T/C

CCOC(=S)SCc1ccc([N+](=O)[O-])cc1
inactive: dose: 100.0 mg/kg/injection, schedule: Q04DX002 (ip), vehicle: gum acacia 97 % of control | dose: 200.0 mg/kg/injection, schedule: Q04DX002 (ip), vehicle: gum acacia 100 % of control | dose: 400.0 mg/kg/injection, schedule: Q04DX002 (ip), vehicle: gum acacia 97 % of control

CCCc1ccccc1O
inactive: dose: 100.0 mg/kg/injection, schedule: Q04DX003 (ip), vehicle: alcohol 97 % of control | dose: 200.0 mg/kg/injection, schedule: Q04DX003 (ip), vehicle: alcohol 94 % of control

CC1(C)N=C(N)N=C(N)N1c1ccc(Cl)c(Cl)c1
inactive: dose: 1.0 mg/kg/injection, schedule: Q01DX009 (ip), vehicle: saline 111 % of control | dose: 1.25 mg/kg/injection, schedule: Q01DX009 (ip), vehicle: saline 109 % of control | dose: 2.5 mg/kg/injection, schedule: Q01DX009 (ip), vehicle: saline 109 % of control and 117 % of control | dose: 5.0 mg/kg/injection, schedule: Q01DX001 (ip), vehicle: saline 105 % of control | dose: 5.0 mg/kg/injection, schedule: Q01DX009 (ip), vehicle: saline 119 % of control | dose: 10.0 mg/kg/injection, schedule: Q01DX001 (ip), vehicle: saline 102 % of control and 106 % of control | dose: 10.0 mg/kg/injection, schedule: Q01DX009 (ip), vehicle: saline 117 % of control and 118 % of control | dose: 20.0 mg/kg/injection, schedule: Q01DX001 (ip), vehicle: saline 105 % of control and 106 % of control | dose: 20.0 mg/kg/injection, schedule: Q01DX009 (ip), vehicle: saline 92 % of control | dose: 36.0 mg/kg/injection, schedule: Q01DX009 (ip), vehicle: saline 88 % of control | dose: 40.0 mg/kg/injection, schedule: Q01DX001 (ip), vehicle: saline 107 % of control and 92 % of control

O=C1OC2(Cc3ccccc31)c1ccccc1-c1ccccc12
inactive: dose: 25.0 mg/kg/injection, schedule: Q04DX003 (ip), vehicle: Klucel (hydroxypropylcellulose) (HPC) 91 % of control | dose: 50.0 mg/kg/injection, schedule: Q04DX003 (ip), vehicle: Klucel (hydroxypropylcellulose) (HPC) 90 % of control | [1] 88 % of control | [2] 88 % of control | [3] 90 % of control

O=C1C2OC2(c2ccccc2)C(=O)C2OC12c1ccccc1 (stereo unspecified)
inactive: dose: 75.0 mg/kg/injection, schedule: Q01DX001 (ip), vehicle: Klucel (hydroxypropylcellulose) (HPC) 96 % of control | dose: 150.0 mg/kg/injection, schedule: Q01DX001 (ip), vehicle: Klucel (hydroxypropylcellulose) (HPC) 87 % of control | dose: 300.0 mg/kg/injection, schedule: Q01DX001 (ip), vehicle: Klucel (hydroxypropylcellulose) (HPC) 91 % of control

CCO/C=N/c1oc(-c2ccccc2)nc1C#N
inactive: [4] 91 % of control | [5] 96 % of control

CCC(C)C(CN)(CCCCN(C)C)c1cccc2ccccc12 (stereo unspecified)
inactive: [6] 97 % of control | [7] 100 % of control

NC(=O)N1C(=O)C2C3C=CC(O3)C2C1=O (stereo unspecified)
inactive: dose: 100.0 mg/kg/injection, schedule: Q01DX009 (ip), vehicle: saline 96 % of control | [8] 98 % of control | dose: 200.0 mg/kg/injection, schedule: Q01DX009 (ip), vehicle: saline 95 % of control | [9] 101 % of control | [10] 101 % of control

CCCCCC(C)O[Si](C)C1(C)CCCCC1 (stereo unspecified)
inactive: [6] 94 % of control | [7] 94 % of control | [11] 104 % of control

CC(=O)c1c(C)[nH]c2ccccc12
inactive: [12] 101 % of control | [6] 95 % of control | [13] 103 % of control | [7] 95 % of control | [14] 97 % of control | [11] 95 % of control

CCCSC(CCc1cnc(N)nc1C)SCCC
inactive: [15] 94 % of control

CN(C)/C=N/n1cnnc1
inactive: [8] 94 % of control | [9] 98 % of control | [10] 102 % of control

CC1(C)CCC2=C(O1)C(=O)c1ccccc1C2=O
inactive: [12] 102 % of control | [13] 104 % of control | [14] 94 % of control

CCCSc1ncnc2nc[nH]c12
inactive: dose: 31.3 mg/kg/injection, schedule: Q01DX009 (ip), vehicle: saline 93 % of control and 100 % of control | dose: 62.5 mg/kg/injection, schedule: Q01DX009 (ip), vehicle: saline 97 % of control and 121 % of control | dose: 125.0 mg/kg/injection, schedule: Q01DX009 (ip), vehicle: saline 121 % of control | dose: 250.0 mg/kg/injection, schedule: Q01DX009 (ip), vehicle: saline 100 % of control

O=NC1C(Cl)C2CC1C1CCCC21 (stereo unspecified)
inactive: [1] 95 % of control | [16] 92 % of control | [2] 92 % of control | [17] 96 % of control | [3] 94 % of control

Cc1nnc(NS(=O)(=O)c2ccc(N=Nc3cc(N=Nc4ccccc4)c(N)nc3N)cc2)s1
inactive: [18] 87 % of control | [19] 89 % of control | [20] 97 % of control

O=C(O)c1ncn[nH]1
inactive: dose: 100.0 mg/kg/injection, schedule: Q01DX009 (ip), vehicle: Klucel (hydroxypropylcellulose) (HPC) 95 % of control | [4] 89 % of control | [1] 101 % of control | [16] 100 % of control | [5] 115 % of control | [2] 95 % of control | [17] 100 % of control | [15] 89 % of control | [3] 108 % of control

Fc1c(F)c(F)c(Oc2c(F)c(F)c(C(F)(F)F)c(F)c2F)c(F)c1F
inactive: [21] 102 % of control | [6] 94 % of control | [22] 98 % of control | [7] 92 % of control | [23] 98 % of control | [11] 92 % of control

CCCCOP(=O)(OCCCC)N(C)c1ccccc1
inactive: dose: 25.0 mg/kg/injection, schedule: Q04DX002 (ip), vehicle: saline with Tween-80 89 % of control | dose: 50.0 mg/kg/injection, schedule: Q04DX002 (ip), vehicle: saline with Tween-80 95 % of control | [24] 92 % of control and 93 % of control

NSc1ccc(N)s1
inactive: [24] 108 % of control | dose: 200.0 mg/kg/injection, schedule: Q04DX002 (ip), vehicle: saline with Tween-80 101 % of control | dose: 400.0 mg/kg/injection, schedule: Q04DX002 (ip), vehicle: saline with Tween-80 108 % of control

Cc1ccccc1OCCCCCl
inactive: [21] 95 % of control | [6] 97 % of control | [22] 88 % of control | [7] 92 % of control | [23] 89 % of control | [11] 100 % of control

Cc1ccnc(NS(=O)(=O)c2ccc(N=Nc3c(N)n(C)c(=O)n(C)c3=O)cc2)n1
inactive: [18] 98 % of control | [19] 93 % of control | [20] 95 % of control
